Reference: patent US20230000842A1, “METHODS OF TREATING CARTILAGE DISORDERS THROUGH INHIBITION OF CLK AND DYRK” (SAMUMED, LLC, priority 2019, published 2023)

Legend:
[1] = tested on: Wnt pathway activity (SW480 colon carcinoma cells stably expressing the Sp5-Luc reporter); assay: Wnt pathway activity screening assay (Sp5-Luc reporter gene assay); conditions: Homo sapiens, SW480, Table 4; SW480 cells stably expressing Sp5-Luc reporter, 10-point dose-response from 10 μM, 36 to 48 hours
[2] = tested on: primary human mesenchymal stem cells (hMSCs); assay: Chondrogenesis screening using primary human mesenchymal stem cells; type: cell-based; conditions: Homo sapiens, Mesenchymal stem cells, hMSC chondrogenesis; for EC50: concentration required to induce 50% levels of chondrogenesis with TGF-β3 as positive control, read-out: Conc (nM) of 50% TGF-β3 activity; for Emax: maximum activity relative to TGF-β3 (10 ng/mL) positive control, read-out: Max. Activity as % TGF-β3 activity
From the text: Representative compounds were screened using primary human mesenchymal stem cells (hMSCs) to determine their ability to induce chondrogenesis (process by which cartilage is developed).
Human Mesenchymal Stem Cell Culture: Primary human mesenchymal stem cells (hMSCs) were purchased from Lonza (Walkersville, Md.) and expanded in Mesenchymal Stem Cell Growth Media (Lonza). Cells between passage 3 and 6 were used for the experiments.
Area of nodules in each well was normalized to the average of 3 DMSO treated wells on the same plate using Excel (Microsoft Inc.). The normalized averages (fold change over DMSO) of 2 or 3 replicate wells for each compound concentration were calculated. Due to solubility limitations of some of the compounds, curve fitting was incomplete leading to inaccurate EC50 determinations.
Using TGF-β3 as a positive control, the concentration of representative compounds required to induce 50% levels of chondrogenesis is reported. In addition, the maximum activity of each compound and the respective dose that each compound reached maximum chondrogenesis activity is reported.

CLK3 kinase = CLK3 kinase (Homo sapiens, UniProt P49761); assay: CLK3 kinase activity assay (Z-lyte FRET); type: biochemical; conditions: Z-lyte Ser/Thr 18 peptide, 156 μM ATP, 1 h at room temperature;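 also: kinase activity read as coumarin/fluorescein emission ratio by FRET, unphosphorylated peptide as 0% and phosphorylated peptide as 100% control, values from non-linear regression of dose-response curves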
CLK2 kinase = CLK2 kinase (Homo sapiens, UniProt P49760); assay: CLK2 kinase activity assay (Z-lyte FRET); type: biochemical; conditions: Z-lyte Ser/Thr 6 peptide, 60 μM ATP, 1 h at room temperature;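 also: FRET read-out as coumarin to fluorescein emission ratio, unphosphorylated peptide as 0% and phosphorylated peptide as 100% controls, duplicate reactions, non-linear regression fit of dose-response curves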
Chain of CLK2 kinase (P49760 whole entry): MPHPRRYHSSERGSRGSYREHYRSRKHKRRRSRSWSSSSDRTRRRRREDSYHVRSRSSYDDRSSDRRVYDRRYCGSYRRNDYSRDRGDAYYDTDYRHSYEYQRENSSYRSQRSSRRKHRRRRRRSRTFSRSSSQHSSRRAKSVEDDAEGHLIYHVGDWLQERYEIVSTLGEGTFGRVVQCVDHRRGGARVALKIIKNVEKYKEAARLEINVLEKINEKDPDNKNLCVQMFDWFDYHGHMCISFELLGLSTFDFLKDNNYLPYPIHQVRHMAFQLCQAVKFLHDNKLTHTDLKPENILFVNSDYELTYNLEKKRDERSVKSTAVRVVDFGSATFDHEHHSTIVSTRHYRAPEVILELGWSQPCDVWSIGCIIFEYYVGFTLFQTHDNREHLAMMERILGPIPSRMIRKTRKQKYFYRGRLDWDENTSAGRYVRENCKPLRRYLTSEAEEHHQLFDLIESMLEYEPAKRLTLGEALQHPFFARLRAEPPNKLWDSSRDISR

Chain of CLK3 kinase (P49761 whole entry): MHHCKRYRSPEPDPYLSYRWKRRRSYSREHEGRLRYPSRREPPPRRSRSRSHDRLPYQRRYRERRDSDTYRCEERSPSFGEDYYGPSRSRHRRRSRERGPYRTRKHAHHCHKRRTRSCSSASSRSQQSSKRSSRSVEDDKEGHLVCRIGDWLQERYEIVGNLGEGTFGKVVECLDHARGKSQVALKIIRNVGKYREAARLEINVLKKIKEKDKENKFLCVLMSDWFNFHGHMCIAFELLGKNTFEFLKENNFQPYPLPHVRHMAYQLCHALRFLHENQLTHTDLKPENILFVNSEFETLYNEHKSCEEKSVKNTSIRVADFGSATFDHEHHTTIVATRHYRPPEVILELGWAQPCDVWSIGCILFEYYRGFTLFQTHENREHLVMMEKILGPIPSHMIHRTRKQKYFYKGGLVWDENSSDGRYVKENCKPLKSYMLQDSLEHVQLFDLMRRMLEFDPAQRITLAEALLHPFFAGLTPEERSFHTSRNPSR

| Structure (SMILES) | EC50 [1] [nM] | EC50 [2] [nM] | Emax [2] [%] | EC50 (CLK3 kinase) [nM] | EC50 (CLK2 kinase) [nM] |
| --- | --- | --- | --- | --- | --- |
| CN(C)Cc1cncc(-c2cnc3[nH]nc(-c4nc5c(-c6ccsc6)cccc5[nH]4)c3c2)c1 [compound 251] | 32 | 300 | 105 | 67 |  |
| CN(C)CCOc1cncc(-c2cc3c(-c4cc5c(-c6ccc(F)cc6)nccc5[nH]4)n[nH]c3cn2)c1 [compound 318] | 3000 | 900 | 113 |  | 19 |
| Nc1cncc(-c2cc3c(-c4cc5c(-c6ccccc6F)ccnc5[nH]4)n[nH]c3cn2)c1 [compound 325] | > 10000 |  | 32.4 |  | 4 |
| CC(C)Nc1cncc(-c2cnc3[nH]nc(-c4cc5c(-c6ccccc6F)ccnc5[nH]4)c3c2)c1 [compound 333] | > 10000 | 10 | 81.6 |  | 20 |
| Cc1ccncc1-c1ccc2[nH]nc(-c3cc4c(-c5ccncc5)ccnc4[nH]3)c2n1 [compound 376] | > 10000 | 300 | 56.5 |  | 11 |
| Nc1cncc(-c2cnc3[nH]nc(-c4cc5c(-c6ccncc6)ccnc5[nH]4)c3c2)c1 [compound 380] | > 10000 |  | 11.9 |  | 5 |
| Nc1cncc(-c2cc3c(-c4cc5c(-c6ccncc6)cncc5[nH]4)n[nH]c3cn2)c1 [compound 381] | > 10000 | 10 | 52 |  | 3 |
| CCCC(=O)Nc1cncc(-c2cnc3[nH]nc(-c4cc5c(-c6ccncc6)ccnc5[nH]4)c3c2)c1 [compound 384] | 999 | 30 | 50.3 | 100 |  |
| O=C(CC1CCNCC1)Nc1cncc(-c2cnc3[nH]nc(-c4cc5c(-c6ccncc6)ccnc5[nH]4)c3c2)c1 [compound 393] | > 10000 |  | 26.7 |  | 6 |
| c1cc(-c2ccnc3[nH]c(-c4n[nH]c5ccc(-c6cncc(CNCC7CCCC7)c6)nc45)cc23)ccn1 [compound 396] | > 10000 | 100 | 67.2 |  | 12 |
| CN(C)c1cncc(-c2cnc3[nH]nc(-c4cc5c(-c6ccncc6)cncc5[nH]4)c3c2)c1 [compound 397] | > 10000 |  | 191 |  | 3 |
| c1cc(-c2ccnc3[nH]c(-c4n[nH]c5ccc(-c6cncc(OCCN7CCCC7)c6)nc45)cc23)ccn1 [compound 404] | > 10000 |  | 39.6 |  | 5 |
| c1cc(-c2ccnc3[nH]c(-c4n[nH]c5ccc(-c6cncnc6)cc45)cc23)ccn1 [compound 405] | > 10000 |  | 17.3 |  | 3 |
| O=C(Nc1cncc(-c2cnc3[nH]nc(-c4cc5cccnc5[nH]4)c3c2)c1)c1ccccc1 [compound 436] | > 10000 |  | 21.8 |  | 8 |
| Cn1cc(-c2cnc3[nH]nc(-c4cc5cccnc5[nH]4)c3c2)cn1 [compound 454] | > 10000 | 300 | 51.7 |  | 3 |
| CN1CCN(c2cccc3[nH]c(-c4n[nH]c5ncc(-c6cncc(CN7CCCCC7)c6)cc45)cc23)CC1 [compound 494] |  | 300 |  | 973 | 12 |
| CN1CCN(c2ccnc3[nH]c(-c4n[nH]c5ccc(-c6cn[nH]c6)nc45)cc23)CC1 [compound 498] | > 10000 | 300 | 60.1 |  | 3 |
| CN1CCN(c2cc(C(=O)Nc3cc4cc(-c5cnn(C)c5)ccc4cn3)ccn2)CC1 [compound 545] |  |  | 27.1 |  |  |
| CNC(=O)c1ccc(C(=O)Nc2cc3cc(-c4cn(C)nn4)ccc3cn2)cn1 [compound 577] |  |  |  | 56 | 3 |
| Cn1cncc1-c1ccc2cnc(NC(=O)c3ccnc(N4CC(N)C4)c3)cc2c1 [compound 581] |  |  |  | 11 | 2 |
| O=C(Cc1ccccc1)Nc1cncc(-c2ccc3[nH]nc(-c4nc5c(-c6ccncc6)ccnc5[nH]4)c3n2)c1 [compound 626] | > 10000 |  |  |  | 7 |
| COc1cccc(-c2cncc3[nH]c(-c4n[nH]c5ccc(-c6cn[nH]c6)nc45)nc23)c1 [compound 633] | > 10000 |  |  |  | 3 |
| CN1CC2CCC(C1)N2C(=O)Nc1cc2cc(-c3cnn(C)c3)ccc2cn1 [compound 638] | > 10000 |  |  |  | 1130 |
| O=C(Nc1cc2cc(-c3cnco3)cnc2cn1)[C@H]1CC[C@H](CO)CC1 [compound 640] | > 10000 |  |  |  | 7430 |
